The record followed here is patent US20150329558A1, “FUSED HETEROCYCLIC COMPOUNDS AS ION CHANNEL MODULATORS” (Gilead Sciences, Inc., priority 2011, published 2015).

Data set [1] is described as follows: Microsomal stability assay, dog. It is filed as in vitro ADME. As to conditions: metabolic stability, dog liver microsomes 0.5 mg/mL, substrate 3 uM. The gist of the method:
(§1)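 Liver microsomes at 0.5 mg/mL protein in 100 mM KPO4 buffer, incubated with 3 uM compound and NADPH-regenerating system, run in duplicate. Samples taken at 2, 12, 25, 45 and 65 min and quenched in MeOH/ACN/water before analysis.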
A general note: Microsomes from liver hold many membrane-bound enzymes, among them those of drug oxidation.

The target in a further data set is T1, hNav1.1 (Homo sapiens, UniProt P35498).
T1 construct: expressed in transfected cells; host or cells: HEK293, transient transfection (α1:β1:β2 = 10:1:1)
In words: Nav1.1 use-dependent block, whole-cell voltage clamp. It is filed as cell-based. As to conditions: use-dependent block 10 Hz, read-out: NAv1.1*-CHAN TEST-UDB-10 HZ-.

Data set [2] in a line: Microsomal stability assay, rat. The format is in vitro ADME. As to conditions: metabolic stability, rat liver microsomes 0.5 mg/mL, substrate 3 uM. The method, boiled down: as §1
The next data set deals with T2, Human Nav1.2 (Homo sapiens, UniProt Q99250).
T2 construct: expressed in transfected cells
In words: Nav1.2 use-dependent block, whole-cell voltage clamp. The format is cell-based. As to conditions: use-dependent block 10 Hz, read-out: NAv1.2*-CHAN TEST-UDB-10 HZ-. From the text:
Wild-type (WT) cDNA stably transfected in Chinese hamster ovary (CHO) cells is used to record INa. Unless otherwise noted, all reagents are purchased from Sigma-Aldrich (St Louis, Mo., U.S.A.).
Whole-cell voltage-clamp recordings are used to measure the biophysical properties of WT. Briefly, the pipette solution consists of (in mM) 110 CsF, 10 NaF, 20 CsCl, 2 EGTA, 10 HEPES, with a pH of 7.35 and osmolarity of 300 mOsmol/kg. The bath (control) solution contains in (mM): 145 NaCl, 4 KCl, 1.8 CaCl2, 1 MgCl2, 10 dextrose, 10 HEPES, with a pH of 7.35 and osmolarity of 310 mOsmol/kg. Cells are allowed to stabilize for 10 min after establishment of the whole-cell configuration before current is measured. Series resistance is compensated 90% to assure that the command potential is reached within microseconds with a voltage error <2 mV. Leak currents are subtracted by using an online P/4 procedure and all currents are low-pass Bessel filtered at 5 kHz and digitized at 50 kHz.
Tonic block of peak current is measured using a step to −10 mV (20 ms) from a holding potential of −120 mV (0.2 Hz). Use-dependent block of peak current is measured during pulse number 300 of a pulse train (−10 mV, 5 ms, 300 pulses, 10 Hz or 25 Hz) from a holding potential of −120 mV. Two sequential pulse train stimulations are averaged to obtain mean current traces for each recording condition, which are then used for offline subtraction and analysis.
For use-dependent studies, cells are stimulated with depolarizing pulse trains (−10 mV, 5 ms, 300 pulses, 10 and 25 Hz) from a holding potential of −120 mV. Currents are then normalized to the peak current recorded in response to the first pulse in each frequency train. For tonic block studies, peak current is evaluated in response to a 20 ms depolarization to −10 mV (0.2 Hz). Data analysis is performed using Clampfit 9.2 (Axon Instruments, Union City, Calif., U.S.A), Excel 2002 (Microsoft, Seattle, Wash., U.S.A.), and OriginPro 7.0 (OriginLab, Northampton, Mass., U.S.A) software. Results are presented as mean±SEM.
A stock solution of 10 mM compound of Formula I is prepared in 0.1 M HCl or DMSO. A fresh dilution of the compound of Formula I in the bath solution is prepared every experimental day and the pH is readjusted to 7.35 as necessary. The final DMSO concentration was kept at 0.1% in all solutions. Direct application of the perfusion solution to the clamped cell is achieved using the Perfusion Pencil system (Automate, Berkeley, Calif.). Direct cell perfusion is driven by gravity at a flow rate of 350 μL/min using a 250 micron tip. This system sequesters the clamped cell within a perfusion stream and enables complete solution exchange within 1 second. The clamped cell is perfused continuously starting immediately after establishing the whole-cell configuration. Control currents are measured during control solution perfusion.
Solutions are perfused for three minutes prior to current recordings to allow equilibrium (tonic) drug block. Tonic block of peak currents is measured from this steady-state condition. Three sequential current traces are averaged to obtain a mean current for each recording. The mean current traces are utilized for offline analysis. Use-dependent block of peak current is measured during pulse number 300 of the pulse train, (−10 mV, 5 ms, 300 pulses, 10 Hz) from a holding potential of −120 mV. Two sequential pulse train stimulations are averaged to obtain mean current traces for each recording condition, which are then used for offline subtraction and analysis. Where appropriate, concentration inhibition curves are fit with the Hill equation: I/Imax=1/[1+10̂(log IC50−I)*k], where IC50 is the concentration that produces half inhibition and k is the Hill slope factor.

T2 sequence (Q99250 whole entry): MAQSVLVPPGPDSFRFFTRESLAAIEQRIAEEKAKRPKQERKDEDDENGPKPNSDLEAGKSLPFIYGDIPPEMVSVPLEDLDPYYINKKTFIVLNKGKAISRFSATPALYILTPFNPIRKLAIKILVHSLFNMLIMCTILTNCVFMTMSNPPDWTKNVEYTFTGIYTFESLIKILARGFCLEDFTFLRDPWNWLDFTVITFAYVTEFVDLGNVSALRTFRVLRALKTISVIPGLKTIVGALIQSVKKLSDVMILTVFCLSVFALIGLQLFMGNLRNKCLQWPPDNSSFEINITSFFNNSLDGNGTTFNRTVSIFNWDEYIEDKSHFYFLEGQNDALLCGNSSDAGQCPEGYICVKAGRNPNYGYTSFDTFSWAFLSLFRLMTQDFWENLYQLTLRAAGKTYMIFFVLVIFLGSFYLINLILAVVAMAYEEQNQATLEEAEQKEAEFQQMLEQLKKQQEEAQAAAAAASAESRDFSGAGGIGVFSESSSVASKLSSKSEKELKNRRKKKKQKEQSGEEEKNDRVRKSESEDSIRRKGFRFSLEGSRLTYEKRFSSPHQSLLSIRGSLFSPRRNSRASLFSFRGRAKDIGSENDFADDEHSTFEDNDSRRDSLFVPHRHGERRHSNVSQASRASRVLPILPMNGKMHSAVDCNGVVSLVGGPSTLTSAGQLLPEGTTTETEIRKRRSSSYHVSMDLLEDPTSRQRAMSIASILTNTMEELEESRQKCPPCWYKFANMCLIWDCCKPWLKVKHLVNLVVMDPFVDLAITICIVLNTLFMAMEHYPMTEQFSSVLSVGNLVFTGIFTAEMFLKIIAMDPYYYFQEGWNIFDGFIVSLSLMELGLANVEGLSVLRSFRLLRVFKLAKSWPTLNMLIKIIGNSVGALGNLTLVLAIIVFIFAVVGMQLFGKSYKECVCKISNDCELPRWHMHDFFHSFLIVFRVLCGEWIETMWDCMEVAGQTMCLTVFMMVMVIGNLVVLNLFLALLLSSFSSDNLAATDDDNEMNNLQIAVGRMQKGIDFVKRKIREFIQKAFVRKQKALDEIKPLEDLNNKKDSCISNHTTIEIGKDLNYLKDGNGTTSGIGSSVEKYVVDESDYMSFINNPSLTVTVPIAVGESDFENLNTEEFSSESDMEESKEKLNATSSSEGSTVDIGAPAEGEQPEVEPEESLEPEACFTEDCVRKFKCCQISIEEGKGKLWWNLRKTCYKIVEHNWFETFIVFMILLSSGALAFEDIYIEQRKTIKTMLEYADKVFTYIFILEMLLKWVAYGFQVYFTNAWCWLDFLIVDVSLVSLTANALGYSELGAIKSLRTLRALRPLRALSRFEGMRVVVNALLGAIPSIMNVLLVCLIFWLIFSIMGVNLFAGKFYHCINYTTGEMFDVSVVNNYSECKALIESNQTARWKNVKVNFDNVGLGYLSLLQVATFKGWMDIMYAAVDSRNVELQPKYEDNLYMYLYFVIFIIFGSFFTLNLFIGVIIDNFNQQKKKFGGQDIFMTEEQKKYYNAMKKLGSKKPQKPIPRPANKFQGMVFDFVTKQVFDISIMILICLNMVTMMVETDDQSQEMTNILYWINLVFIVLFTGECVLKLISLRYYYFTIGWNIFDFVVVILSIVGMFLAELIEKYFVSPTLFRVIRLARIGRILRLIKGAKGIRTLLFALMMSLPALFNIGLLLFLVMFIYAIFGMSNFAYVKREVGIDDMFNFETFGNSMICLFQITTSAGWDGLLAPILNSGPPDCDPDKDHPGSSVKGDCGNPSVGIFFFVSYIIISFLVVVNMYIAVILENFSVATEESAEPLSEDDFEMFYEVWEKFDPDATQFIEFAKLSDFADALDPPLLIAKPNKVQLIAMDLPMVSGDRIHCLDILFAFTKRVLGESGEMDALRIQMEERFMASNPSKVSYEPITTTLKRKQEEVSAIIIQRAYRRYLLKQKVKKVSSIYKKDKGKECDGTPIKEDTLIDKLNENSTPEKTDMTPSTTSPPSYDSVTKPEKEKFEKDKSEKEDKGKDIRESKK

`O=C1c2cc(-c3ccc(C(F)(F)F)cc3)ccc2CCN1Cc1ncccn1` [IX-3, 2-(pyrimidin-2-ylmethyl)-7-(4-(trifluoromethyl)phenyl)-3,4-dihydroisoquinolin-1(2H)-one] yielded an MS Dog THalf in data set [1] of 320 min. Moreover, the results for the inhibition at 1 µM at hNav1.1 and on Human Nav1.2 were 2.9% and -4.1%, respectively. Besides, in data set [2], the MS Rat THalf was 355 min.

On to `O=C(c1ncccn1)N1CCc2ccc(-c3ccc(C(F)(F)F)cc3)cc2C1` [IX-7, pyrimidin-2-yl(7-(4-(trifluoromethyl)phenyl)-3,4-dihydroisoquinolin-2(1H)-yl)methanone], for which the MS Dog THalf in data set [1] is above 395 min. The results for the inhibition at 1 µM at hNav1.1 and on Human Nav1.2 were 2.02% and 8.62%, respectively. This molecule also returned an MS Rat THalf in data set [2] above 395 min.

For `O=C(c1cccnn1)N1CCc2ccc(-c3ccc(C(F)(F)F)cc3)cc2C1` [IX-17, Pyridazin-3-yl(7-(4-(trifluoromethyl)phenyl)-3,4-dihydroisoquinolin-2 (1H)-yl) methanone], in data set [1], the MS Dog THalf was above 395 min. Further, the results for the inhibition at 1 µM at hNav1.1 and on Human Nav1.2 were 1.5% and 10.4%, respectively. The same molecule displayed an MS Rat THalf in data set [2] of 302 min.

`Cn1cnc(C(=O)N2CCc3ccc(-c4ccc(C(F)(F)F)cc4)cc3C2)c1` [IX-39, (1-methyl-1H-imidazol-4-yl)(7-(4-(trifluoromethyl)phenyl)-3,4-dihydroisoquinolin-2(1H)-yl)methanone] returned an MS Dog THalf in data set [1] of 256 min. The inhibition at 1 µM at hNav1.1 was 1.5%; at Human Nav1.2, 16.8%. Further, in data set [2], the MS Rat THalf amounted to 281 min.

Consider `O=C1c2cc(-c3ccc(C(F)(F)F)cc3)ccc2OCN1Cc1ccccn1` [VIII-1, 3-(pyridin-2-ylmethyl)-6-(4-(trifluoromethyl)phenyl)-2H-benzo[e][1,3]oxazin-4(3H)-one], for which the MS Dog THalf in data set [1] was 210 min. Besides, the inhibition at 1 µM turned out to be 4.4% on hNav1.1 and 16% on Human Nav1.2. The molecule further came in with an MS Rat THalf in data set [2] of 211 min.

In turn, `O=C1c2cc(-c3ccc(OC(F)(F)F)cc3)ccc2OCN1Cc1ccccn1` [VIII-3, 3-(pyridin-2-ylmethyl)-6-(4-(trifluoromethoxy)phenyl)-2H-benzo[e][1,3]oxazin-4(3H)-one] gave an MS Dog THalf in data set [1] of 164 min. For the same molecule, the inhibition at 1 µM worked out at 3.1% on hNav1.1 and 11.7% at Human Nav1.2. Moreover, the MS Rat THalf in data set [2] amounted to 227 min.

Molecule `CC1Oc2ccc(-c3ccc(OC(F)(F)F)cc3)cc2C(=O)N1Cc1ncccn1` (stereo not shown) [VIII-7, 2-methyl-3-(pyrimidin-2-ylmethyl)-6-(4-(trifluoromethoxy)phenyl)-2H-benzo[e][1,3]oxazin-4(3H)-one] had an MS Dog THalf in data set [1] of 392 min. Further, the values for the inhibition at 1 µM on hNav1.1 and at Human Nav1.2 were 12.1% and 18.2%, respectively. In data set [2], this molecule had an MS Rat THalf of 152 min.
